The term IC50 denotes the concentration that gives 50% inhibition.

The experiment deals with T1, GluK2 receptor.
T1 construct: gene GRIK2
The experiment is described as follows: aequorin luminescence Ca2+ influx assay in HEK293 cells. The class given is cell-based. To be noted: 275 μM glutamate as agonist, Ringer buffer + 100 mM CaCl2. From the text: aequorin luminescence Ca2+ influx assay in HEK293 cells on GluK2 receptor

In the case of `O=C1CCCc2c1c1ccccc1n2Cc1ccc(Cl)cc1` [compound 7, 9-(4-chlorobenzyl)-4-oxo-1,2,3,4-tetrahydrocarbazole], the “GluK2 inhibition at 100 µM, %” value is 22%.

For the molecule `COc1ccc2c(c1)c(C)c(-c1cccs1)n2C` [compound 3, 5-methoxy-1,3-dimethyl-2-(2-thienyl)indole], the IC50 (non-competitive) came out at 12 µM.

The values are drawn from article PMC4295030, “Synthesis and molecular docking of novel non-competitive antagonists of GluK2 receptor” (Medicinal Chemistry Research, 2014).
